{"source": "patent US20200385777A1", "about": "“METHOD FOR DETERMINING DYSBIOSIS IN THE INTESTINAL MICROBIOME” (EVOLVE BIOSYSTEMS, INC., priority 2018, published 2020)", "key": {"Clostridium difficile": {"system": "Clostridium difficile", "experiment": "Equine trial: Clostridium difficile diarrhea outcome in foals", "assay_type": "in vivo, horse", "settings": "all foals dosed at birth with 6.6 mg/kg", "experimental": "Seventeen foals were born during the initiation of the outbreak, of which fifteen animals became ill and required intervention, applying the standard of care (i.e., antibiotic treatment) and two died. […] All treated animals were given doses immediately at birth and twice per day thereafter for 4 days. […] Two foals, who were dosed starting at 12 hours of life rather than immediately at birth, developed a mild infection by Clostridium difficile but recovered within 8 hr compared to the standard recovery time of >24 hr for sick animals given the standard of care. […] A Fisher's exact test of the two populations (Standard of Care and Probiotic treated) yields a significant difference in incidences of C. difficile infection (p=0.0036) (Table 10)."}, "isolate 7005-9": {"system": "isolate 7005-9", "experiment": "MIC microdilution, fecal isolate 7005-9", "assay_type": "cell-based", "settings": "for MIC: read-out: Minimum inhibitory concentration (MIC)", "experimental": "(§1) Whole genome sequencing and assembly of bacterial isolates. […] Selected isolates were grown in 20 ml LB broth overnight at 37° C. Cultures were aliquoted into 1 ml aliquots, centrifuged at 10,000×g for 5 min and the supernatant was removed. Cell pellets were resuspended in DNA/RNA Shield solution provided in DNA/RNA Shield Microbe Lysis tubes (Zymo Research, Irvine Calif.) and transferred into lysis tubes. High-molecular weight genomic DNA was extracted using the Quick-DNA Fecal/Soil\n(§2) Minimal inhibitory concentrations. […] Carbenicillin was added to growth media for transformed strains at a concentration of 100 μg/ml. The microtiter plates were incubated for 24 h at 37° C. The optical density (OD) of each well was measured at 600 nm using an automated microtiter plate reader (BIO-TEK, Synergy HT). The MIC corresponded to the lowest antibiotic concentration at which no growth was detected. All tests were performed in triplicate"}, "isolate 7174-2": {"system": "isolate 7174-2", "experiment": "MIC microdilution, fecal isolate 7174-2", "assay_type": "cell-based", "settings": "for MIC: read-out: Minimum inhibitory concentration (MIC)", "experimental": "as §1, §2"}, "isolate 7174-5": {"system": "isolate 7174-5", "experiment": "MIC microdilution, fecal isolate 7174-5", "assay_type": "cell-based", "settings": "for MIC: read-out: Minimum inhibitory concentration (MIC)", "experimental": "as §1, §2"}, "isolate 7174-4": {"system": "isolate 7174-4", "experiment": "MIC microdilution, fecal isolate 7174-4", "assay_type": "cell-based", "settings": "for MIC: read-out: Minimum inhibitory concentration (MIC)", "experimental": "as §1, §2"}, "isolate 7084-1": {"system": "isolate 7084-1", "experiment": "MIC microdilution, fecal isolate 7084-1", "assay_type": "cell-based", "settings": "for MIC: read-out: Minimum inhibitory concentration (MIC)", "experimental": "as §1, §2"}, "isolate 7084-4": {"system": "isolate 7084-4", "experiment": "MIC microdilution, fecal isolate 7084-4", "assay_type": "cell-based", "settings": "for MIC: read-out: Minimum inhibitory concentration (MIC)", "experimental": "as §1, §2"}, "isolate 7122-9": {"system": "isolate 7122-9", "experiment": "MIC microdilution, fecal isolate 7122-9", "assay_type": "cell-based", "settings": "for MIC: read-out: Minimum inhibitory concentration (MIC)", "experimental": "as §1, §2"}, "isolate 7005-5": {"system": "isolate 7005-5", "experiment": "MIC microdilution, fecal isolate 7005-5", "assay_type": "cell-based", "settings": "for MIC: read-out: Minimum inhibitory concentration (MIC)", "experimental": "as §1, §2"}, "isolate 7005-11": {"system": "isolate 7005-11", "experiment": "MIC microdilution, fecal isolate 7005-11", "assay_type": "cell-based", "settings": "for MIC: read-out: Minimum inhibitory concentration (MIC)", "experimental": "as §1, §2"}, "isolate 7122-1": {"system": "isolate 7122-1", "experiment": "MIC microdilution, fecal isolate 7122-1", "assay_type": "cell-based", "settings": "for MIC: read-out: Minimum inhibitory concentration (MIC)", "experimental": "as §1, §2"}, "isolate 7122-2": {"system": "isolate 7122-2", "experiment": "MIC microdilution, fecal isolate 7122-2", "assay_type": "cell-based", "settings": "for MIC: read-out: Minimum inhibitory concentration (MIC)", "experimental": "as §1, §2"}, "DH5α": {"system": "DH5α", "experiment": "MIC microdilution, DH5α", "assay_type": "cell-based", "settings": "for MIC: read-out: Minimum inhibitory concentration (MIC)", "experimental": "as §2"}, "isolate 7084-5": {"system": "isolate 7084-5", "experiment": "MIC microdilution, fecal isolate 7084-5", "assay_type": "cell-based", "settings": "for MIC: read-out: Minimum inhibitory concentration (MIC)", "experimental": "as §1, §2"}, "isolate 7005-13": {"system": "isolate 7005-13", "experiment": "MIC microdilution, fecal isolate 7005-13", "assay_type": "cell-based", "settings": "for MIC: read-out: Minimum inhibitory concentration (MIC)", "experimental": "as §1, §2"}, "[1]": {"system": "bacteria isolated from EMB agar from fecal samples of control infants", "experiment": "MIC, fecal isolates of control infants taken together", "assay_type": "cell-based, Escherichia coli; Raoultella planticola", "settings": "all fecal isolates", "experimental": "To confirm the presence of full length, functional ARGs and the relationship of these ARGs to individual resistance phenotypes at the strain level, bacteria isolated from EMB agar were obtained from the fecal samples of four representative control infants. Whole-genome sequencing of twelve isolates was performed on a MinION sequencer and assembly led to an average coverage of 18× (min 5.4; max 40). Taxonomic identification was confirmed via BLASTN against the NCBI nucleotide database (https://www.ncbl.nlrn.nih.gov/nucleotide) showing three isolates classified as Raoultella planticola and the remaining nine as Escherichia coli. The CARD protein sequences collection was used as query against the twelve assembled isolates via TBLASTN. […] The latter genes are likely absent on the E. coli and R. planticola genomes and present on different species.\nWhole genome sequencing and assembly of bacterial isolates. […]\nMinimal inhibitory concentrations. Minimal inhibitory concentrations (MICs) were determined according to Clinical and Laboratory Standards Institute guidelines for microdilution susceptibility testing {Wikler, 2006}. […] The optical density (OD) of each well was measured at 600 nm using an automated microtiter plate reader (BIO-TEK, Synergy HT). The MIC corresponded to the lowest antibiotic concentration at which no growth was detected. […]"}}}
{"smiles": "CO/N=C(\\C(=O)N[C@@H]1C(=O)N2C(C(=O)O)=C(CSC(=O)c3ccco3)CS[C@H]12)c1csc(N)n1", "note": "[ceftiofur]", "values": [{"measurement": "Effect on health outcome related to diarrhea", "setting": "Clostridium difficile", "result": "did not affect health outcome"}]}
{"smiles": "Cc1nnc(SCC2=C(C(=O)O)N3C(=O)[C@@H](NC(=O)Cn4cnnn4)[C@H]3SC2)s1", "note": "[Cefazolin]", "values": [{"measurement": "MIC", "setting": "isolate 7005-9", "result": 64, "unit": "µg/mL"}, {"measurement": "MIC", "setting": "isolate 7174-2", "result": 64, "unit": "µg/mL"}, {"measurement": "MIC", "setting": "isolate 7174-5", "result": 512, "unit": "µg/mL"}, {"measurement": "MIC", "setting": "isolate 7174-4", "result": 512, "unit": "µg/mL"}, {"measurement": "MIC", "setting": "isolate 7084-1", "result": 32, "unit": "µg/mL"}, {"measurement": "MIC", "setting": "isolate 7084-4", "result": 32, "unit": "µg/mL"}, {"measurement": "MIC", "setting": "isolate 7122-9", "result": 8, "unit": "µg/mL"}, {"measurement": "MIC", "setting": "isolate 7005-5", "result": 64, "unit": "µg/mL"}, {"measurement": "MIC", "setting": "isolate 7005-11", "result": 64, "unit": "µg/mL"}, {"measurement": "MIC", "setting": "isolate 7122-1", "result": 8, "unit": "µg/mL"}, {"measurement": "MIC", "setting": "isolate 7122-2", "result": 8, "unit": "µg/mL"}, {"measurement": "MIC", "setting": "DH5α", "result": "< 4", "unit": "µg/mL"}, {"measurement": "MIC", "setting": "isolate 7084-5", "result": 32, "unit": "µg/mL"}, {"measurement": "MIC", "setting": "isolate 7005-13", "result": 64, "unit": "µg/mL"}]}
{"smiles": "CC1(C)S[C@@H]2[C@H](NC(=O)[C@H](N)c3ccccc3)C(=O)N2[C@H]1C(=O)O", "note": "[Ampicillin]", "values": [{"measurement": "Resistant/Susceptible according to breakpoints for clinical resistance", "setting": "isolate 7005-9; isolate 7005-9", "result": "(R)"}, {"measurement": "MIC", "setting": "isolate 7005-9", "result": 128, "unit": "µg/mL"}, {"measurement": "Resistant/Susceptible according to breakpoints for clinical resistance", "setting": "isolate 7174-2; isolate 7174-2", "result": "(R)"}, {"measurement": "MIC", "setting": "isolate 7174-2", "result": 512, "unit": "µg/mL"}, {"measurement": "Resistance among the isolates", "setting": "[1]", "result": "With the exception of three isolates obtained from the same infant (7174), all of the isolates displayed resistance"}, {"measurement": "Resistant/Susceptible according to breakpoints for clinical resistance", "setting": "isolate 7174-5; isolate 7174-5", "result": "(R)"}, {"measurement": "MIC", "setting": "isolate 7174-5", "result": 512, "unit": "µg/mL"}, {"measurement": "Resistant/Susceptible according to breakpoints for clinical resistance", "setting": "isolate 7174-4; isolate 7174-4", "result": "(R)"}, {"measurement": "MIC", "setting": "isolate 7174-4", "result": 512, "unit": "µg/mL"}, {"measurement": "Resistant/Susceptible according to breakpoints for clinical resistance", "setting": "isolate 7084-1; isolate 7084-1", "result": "(R)"}, {"measurement": "MIC", "setting": "isolate 7084-1", "result": 512, "unit": "µg/mL"}, {"measurement": "Resistant/Susceptible according to breakpoints for clinical resistance", "setting": "isolate 7084-4; isolate 7084-4", "result": "(R)"}, {"measurement": "MIC", "setting": "isolate 7084-4", "result": 512, "unit": "µg/mL"}, {"measurement": "Resistant/Susceptible according to breakpoints for clinical resistance", "setting": "isolate 7122-9; isolate 7122-9", "result": "(S)"}, {"measurement": "MIC", "setting": "isolate 7122-9", "result": 16, "unit": "µg/mL"}, {"measurement": "Resistant/Susceptible according to breakpoints for clinical resistance", "setting": "isolate 7005-5; isolate 7005-5", "result": "(R)"}, {"measurement": "MIC", "setting": "isolate 7005-5", "result": 128, "unit": "µg/mL"}, {"measurement": "Resistant/Susceptible according to breakpoints for clinical resistance", "setting": "isolate 7005-11; isolate 7005-11", "result": "(R)"}, {"measurement": "MIC", "setting": "isolate 7005-11", "result": 64, "unit": "µg/mL"}, {"measurement": "Resistant/Susceptible according to breakpoints for clinical resistance", "setting": "isolate 7122-1; isolate 7122-1", "result": "(S)"}, {"measurement": "MIC", "setting": "isolate 7122-1", "result": 16, "unit": "µg/mL"}, {"measurement": "Resistant/Susceptible according to breakpoints for clinical resistance", "setting": "isolate 7122-2; isolate 7122-2", "result": "(S)"}, {"measurement": "MIC", "setting": "isolate 7122-2", "result": 16, "unit": "µg/mL"}, {"measurement": "Resistant/Susceptible according to breakpoints for clinical resistance", "setting": "DH5α", "result": "(S)"}, {"measurement": "MIC", "setting": "DH5α", "result": 4, "unit": "µg/mL"}, {"measurement": "Resistant/Susceptible according to breakpoints for clinical resistance", "setting": "isolate 7084-5; isolate 7084-5", "result": "(R)"}, {"measurement": "MIC", "setting": "isolate 7084-5", "result": 512, "unit": "µg/mL"}, {"measurement": "Resistant/Susceptible according to breakpoints for clinical resistance", "setting": "isolate 7005-13; isolate 7005-13", "result": "(R)"}, {"measurement": "MIC", "setting": "isolate 7005-13", "result": 64, "unit": "µg/mL"}]}
